Data: patent US20200165257A1, “INHIBITORS OF PHOSPHOINOSITIDE 3-KINASE AND HISTONE DEACETYLASE FOR TREATMENT OF CANCER” (THE UNITED STATES OF AMERICA, AS REPRESENTED BY THE …, priority 2017, published 2020)
Where two headings read alike, the source gives them in different places.

Tests used:
PI3Kδ = PI3Kδ (Homo sapiens, UniProt O00329); assay: PI3Kδ kinase assay (HTRF); assay type: biochemical; conditions: for inhibition at 1 µM: symbols ** / *, read-out: PI3Kδ Inhibition Activity (% Inhibition class)
Chain of PI3Kδ (O00329 whole entry): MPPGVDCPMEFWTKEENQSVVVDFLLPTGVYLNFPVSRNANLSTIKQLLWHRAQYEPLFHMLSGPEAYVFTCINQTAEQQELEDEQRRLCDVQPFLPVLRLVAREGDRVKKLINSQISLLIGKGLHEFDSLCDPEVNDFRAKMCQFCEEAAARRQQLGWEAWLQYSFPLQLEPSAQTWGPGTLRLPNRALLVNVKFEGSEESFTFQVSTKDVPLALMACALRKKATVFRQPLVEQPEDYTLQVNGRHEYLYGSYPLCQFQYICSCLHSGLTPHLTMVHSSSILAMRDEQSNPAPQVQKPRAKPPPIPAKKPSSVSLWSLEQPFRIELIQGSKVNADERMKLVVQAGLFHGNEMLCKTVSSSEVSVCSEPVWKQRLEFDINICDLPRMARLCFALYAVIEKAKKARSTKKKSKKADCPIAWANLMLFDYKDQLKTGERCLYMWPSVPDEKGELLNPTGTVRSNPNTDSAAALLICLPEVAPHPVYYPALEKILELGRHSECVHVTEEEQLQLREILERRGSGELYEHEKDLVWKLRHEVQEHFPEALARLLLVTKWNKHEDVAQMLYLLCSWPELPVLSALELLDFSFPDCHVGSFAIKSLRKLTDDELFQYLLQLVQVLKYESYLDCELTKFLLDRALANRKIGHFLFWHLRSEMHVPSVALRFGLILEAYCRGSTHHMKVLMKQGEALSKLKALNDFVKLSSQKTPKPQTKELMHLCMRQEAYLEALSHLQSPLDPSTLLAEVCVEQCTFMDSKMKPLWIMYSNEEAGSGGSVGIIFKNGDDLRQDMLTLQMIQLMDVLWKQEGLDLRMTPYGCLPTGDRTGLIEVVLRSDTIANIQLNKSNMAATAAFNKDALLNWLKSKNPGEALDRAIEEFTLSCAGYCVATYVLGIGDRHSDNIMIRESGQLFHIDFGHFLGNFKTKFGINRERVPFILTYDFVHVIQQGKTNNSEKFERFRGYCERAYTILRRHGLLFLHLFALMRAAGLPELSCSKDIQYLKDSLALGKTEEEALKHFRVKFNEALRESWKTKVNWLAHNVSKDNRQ
Chain of PI3Kδ (P27986 whole entry partner): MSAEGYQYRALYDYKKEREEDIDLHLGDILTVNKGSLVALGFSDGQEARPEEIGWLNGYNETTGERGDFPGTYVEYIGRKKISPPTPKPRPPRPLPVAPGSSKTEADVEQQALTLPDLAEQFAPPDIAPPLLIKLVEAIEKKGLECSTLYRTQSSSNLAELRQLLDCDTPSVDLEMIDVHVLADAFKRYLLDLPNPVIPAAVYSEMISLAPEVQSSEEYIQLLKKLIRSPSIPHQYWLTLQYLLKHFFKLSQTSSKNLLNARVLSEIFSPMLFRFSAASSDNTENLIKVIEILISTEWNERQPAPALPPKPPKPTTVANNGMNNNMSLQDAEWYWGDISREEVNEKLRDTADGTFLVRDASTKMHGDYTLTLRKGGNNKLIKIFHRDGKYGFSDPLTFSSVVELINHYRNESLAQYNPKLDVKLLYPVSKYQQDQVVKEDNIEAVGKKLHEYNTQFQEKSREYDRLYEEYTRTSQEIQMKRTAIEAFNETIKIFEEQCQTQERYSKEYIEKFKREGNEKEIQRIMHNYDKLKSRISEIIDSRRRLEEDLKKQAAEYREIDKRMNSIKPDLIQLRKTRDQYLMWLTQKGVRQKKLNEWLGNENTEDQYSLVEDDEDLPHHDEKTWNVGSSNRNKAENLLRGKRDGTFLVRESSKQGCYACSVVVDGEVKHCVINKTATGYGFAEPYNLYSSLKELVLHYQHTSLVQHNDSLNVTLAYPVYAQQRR
Protocol: (§1) The PIP3 product is detected by displacement of biotin-PIP3 from an energy transfer complex consisting of Europium labeled anti-GST monoclonal antibody, a GST-tagged pleckstrin homology (PH) domain, biotinylated PIP3 and Streptavidin-Allophycocyanin (APC). […] The PIP3 product formed by PI 3-Kinase(h) activity displaces biotin-PIP3 from the complex resulting in a loss of energy transfer, and thus, a decrease in signal.
(§2) First, the kinase reaction with PIP2 substrate is carried out in the presence of ATP, and the reaction is quenched with stop Solution, and then, finally detect by adding Detection Mixture followed by incubation.
(§3) HEPES 50 mM (pH7.0), NaN3 0.02%, BSA 0.01%, Orthovanadate 0.1 mM, 1% DMSO.
(§4) Detection buffer: HEPES 10 mM (pH7.0), BSA 0.02%, KF 0.16 M, EDTA 4 mM.
(§5) 10 μM PIP2 substrate (PI(4,5)P2)
(§6) 10 μM ATP under standard conditions
(§7) 1. Prepare substrate in freshly prepared Reaction Buffer.
(§8) 2. Deliver kinase into the substrate solution and gently mix.
(§9) 3. Deliver compounds in 100% DMSO into the kinase reaction mixture by Acoustic technology (Echo550; nanoliter range), incubate for 10 min at room temperature.
(§10) 4. Deliver ATP into the reaction mixture to initiate the reaction.
(§11) 5. Incubate for 30 min at 30° C.
(§12) 6. Quench the reaction with Stop Solution.
(§13) 7. Add Detection Mixture, and incubate for overnight.
(§14) The emission ratio is converted into μM PIP3 production based on PIP3 standard curves.
(§15) The nonlinear regression to obtain the standard curve and IC50 values are performed using Graphpad Prism software.

PI3Kα = PI3Kα (Homo sapiens, UniProt P42336); assay: PI3Kα kinase assay (HTRF); assay type: biochemical
Chain of PI3Kα (P42336 whole entry): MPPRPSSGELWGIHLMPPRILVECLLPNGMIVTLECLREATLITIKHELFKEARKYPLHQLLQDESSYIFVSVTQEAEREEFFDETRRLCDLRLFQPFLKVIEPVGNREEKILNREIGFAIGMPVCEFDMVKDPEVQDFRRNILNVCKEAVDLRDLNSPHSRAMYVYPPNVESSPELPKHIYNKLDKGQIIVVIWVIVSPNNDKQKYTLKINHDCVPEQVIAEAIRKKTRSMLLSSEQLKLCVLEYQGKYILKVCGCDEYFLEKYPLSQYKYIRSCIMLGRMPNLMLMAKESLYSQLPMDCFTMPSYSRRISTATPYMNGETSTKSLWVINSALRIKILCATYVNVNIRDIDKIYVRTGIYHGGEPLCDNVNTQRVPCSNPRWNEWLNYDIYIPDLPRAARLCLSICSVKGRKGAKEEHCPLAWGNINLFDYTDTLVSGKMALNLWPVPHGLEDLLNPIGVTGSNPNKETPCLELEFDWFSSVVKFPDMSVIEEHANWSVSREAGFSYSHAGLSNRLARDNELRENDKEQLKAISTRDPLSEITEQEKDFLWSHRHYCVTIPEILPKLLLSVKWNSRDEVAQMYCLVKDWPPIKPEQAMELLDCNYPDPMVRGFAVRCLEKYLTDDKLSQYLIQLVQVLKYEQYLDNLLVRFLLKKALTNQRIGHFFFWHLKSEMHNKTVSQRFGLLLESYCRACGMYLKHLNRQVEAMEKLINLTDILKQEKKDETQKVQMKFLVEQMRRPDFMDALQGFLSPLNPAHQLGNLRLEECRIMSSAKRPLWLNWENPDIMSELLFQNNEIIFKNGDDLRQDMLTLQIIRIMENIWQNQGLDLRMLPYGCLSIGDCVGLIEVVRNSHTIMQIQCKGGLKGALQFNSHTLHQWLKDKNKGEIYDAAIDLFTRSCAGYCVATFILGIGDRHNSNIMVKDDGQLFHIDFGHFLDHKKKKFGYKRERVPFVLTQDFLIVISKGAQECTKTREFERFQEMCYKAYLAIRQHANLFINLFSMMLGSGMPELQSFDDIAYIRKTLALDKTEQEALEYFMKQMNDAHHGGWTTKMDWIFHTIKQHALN
Chain of PI3Kα (P27986 whole entry partner): as the sequence (P27986 whole entry partner) above
Protocol: as §1, §2, §3, §4, §5, §6, §7, §8, §9, §10, §11, §12, §13, §14, §15

[1] = system: Breast Cancer Cell Line HS 578T; assay type: cell-based; conditions: Homo sapiens, read-out: inhibition of proliferation
HDAC6 = target: T1, HDAC6 (Homo sapiens, UniProt Q9UBN7); assay: HDAC Fluorescent Activity Assay; assay type: biochemical; conditions: for inhibition at 1 µM: symbols ** / *, read-out: HDAC6 Inhibition Activity (% Inhibition class)
T1 sequence (Q9UBN7 1-1215): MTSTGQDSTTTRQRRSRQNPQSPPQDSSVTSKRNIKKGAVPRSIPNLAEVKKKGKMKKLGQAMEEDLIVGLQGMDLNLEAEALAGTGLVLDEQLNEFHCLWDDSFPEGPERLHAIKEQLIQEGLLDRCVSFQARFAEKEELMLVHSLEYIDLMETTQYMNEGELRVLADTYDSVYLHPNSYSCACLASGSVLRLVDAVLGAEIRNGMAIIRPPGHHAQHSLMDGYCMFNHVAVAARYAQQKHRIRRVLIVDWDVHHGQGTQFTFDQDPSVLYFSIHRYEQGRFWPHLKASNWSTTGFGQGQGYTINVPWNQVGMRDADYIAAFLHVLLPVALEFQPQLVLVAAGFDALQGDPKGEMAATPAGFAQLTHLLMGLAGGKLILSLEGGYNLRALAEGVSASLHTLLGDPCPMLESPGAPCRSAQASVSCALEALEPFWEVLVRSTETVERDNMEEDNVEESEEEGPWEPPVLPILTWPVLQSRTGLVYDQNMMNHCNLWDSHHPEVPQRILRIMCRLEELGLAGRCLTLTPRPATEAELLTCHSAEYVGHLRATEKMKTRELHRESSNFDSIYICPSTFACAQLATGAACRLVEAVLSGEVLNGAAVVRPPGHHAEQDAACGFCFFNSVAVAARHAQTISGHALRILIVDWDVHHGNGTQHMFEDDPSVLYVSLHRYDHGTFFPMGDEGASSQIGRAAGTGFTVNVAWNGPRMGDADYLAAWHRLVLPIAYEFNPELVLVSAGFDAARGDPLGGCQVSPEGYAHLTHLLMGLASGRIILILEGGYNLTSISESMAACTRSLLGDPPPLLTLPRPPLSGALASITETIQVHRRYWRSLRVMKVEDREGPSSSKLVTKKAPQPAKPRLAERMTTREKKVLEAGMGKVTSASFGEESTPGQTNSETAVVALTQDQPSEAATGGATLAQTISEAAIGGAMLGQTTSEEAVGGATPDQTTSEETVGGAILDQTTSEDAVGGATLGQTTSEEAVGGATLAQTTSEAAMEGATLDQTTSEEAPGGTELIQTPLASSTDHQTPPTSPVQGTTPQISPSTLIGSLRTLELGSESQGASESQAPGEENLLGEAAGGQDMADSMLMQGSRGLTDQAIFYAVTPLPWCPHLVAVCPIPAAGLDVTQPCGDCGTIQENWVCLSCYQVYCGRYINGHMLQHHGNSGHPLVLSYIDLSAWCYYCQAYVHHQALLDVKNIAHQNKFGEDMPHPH
Protocol: This protocol is to determine the IC50s or percentage of inhibition values of the test compound against HDACs.
The HDAC Fluorescent Activity Assay is based on the unique Fluorogenic Substrate and Developer combination. […] First, the Fluorogenic Substrate, which comprises an acetylated lysine side chain, is incubated with a purified HDAC enzyme. Deacetylation of the substrate sensitizes the substrate so that, in the second step, treatment with the Developer produces a fluorophore.
Testing compounds were dissolved in 100% DMSO to specific concentration. […]
1. Deliver 2× enzyme in wells of reaction plate except No Enzyme control wells. Add buffer in No En wells.
2. Deliver compounds in 100% DMSO into the enzyme mixture by Acoustic technology (Echo550; nanoliter range). Spin down and pre-incubation.
3. Deliver 2× Substrate Mixture (Fluorogenic HDAC Substrate and co-factor if applicable) in all reaction wells to initiate the reaction. Spin and shake.
4. Incubate for 1-2 hr at 30° C. with seal.
5. Add Developer with Trichostatin A (or TMP269) to stop the reaction and to generate fluorescent color.
6. Fluorescence was read (excitatory, 360; emission, 460) using the EnVision Multilabel
7. Take endpoint reading for analysis after the development reaches plateau.
The percentages of enzyme activity (relative to DMSO controls) and IC50 values were calculated using the GraphPad Prism 4 program based on a sigmoidal dose-response equation.

[2] = system: Leukemia Cell Line RPMI-8226; assay type: cell-based; conditions: Homo sapiens
PI3Kγ = PI3Kγ (Homo sapiens, UniProt P48736); assay: PI3Kγ kinase assay (HTRF); assay type: biochemical
Chain of PI3Kγ (P48736 whole entry): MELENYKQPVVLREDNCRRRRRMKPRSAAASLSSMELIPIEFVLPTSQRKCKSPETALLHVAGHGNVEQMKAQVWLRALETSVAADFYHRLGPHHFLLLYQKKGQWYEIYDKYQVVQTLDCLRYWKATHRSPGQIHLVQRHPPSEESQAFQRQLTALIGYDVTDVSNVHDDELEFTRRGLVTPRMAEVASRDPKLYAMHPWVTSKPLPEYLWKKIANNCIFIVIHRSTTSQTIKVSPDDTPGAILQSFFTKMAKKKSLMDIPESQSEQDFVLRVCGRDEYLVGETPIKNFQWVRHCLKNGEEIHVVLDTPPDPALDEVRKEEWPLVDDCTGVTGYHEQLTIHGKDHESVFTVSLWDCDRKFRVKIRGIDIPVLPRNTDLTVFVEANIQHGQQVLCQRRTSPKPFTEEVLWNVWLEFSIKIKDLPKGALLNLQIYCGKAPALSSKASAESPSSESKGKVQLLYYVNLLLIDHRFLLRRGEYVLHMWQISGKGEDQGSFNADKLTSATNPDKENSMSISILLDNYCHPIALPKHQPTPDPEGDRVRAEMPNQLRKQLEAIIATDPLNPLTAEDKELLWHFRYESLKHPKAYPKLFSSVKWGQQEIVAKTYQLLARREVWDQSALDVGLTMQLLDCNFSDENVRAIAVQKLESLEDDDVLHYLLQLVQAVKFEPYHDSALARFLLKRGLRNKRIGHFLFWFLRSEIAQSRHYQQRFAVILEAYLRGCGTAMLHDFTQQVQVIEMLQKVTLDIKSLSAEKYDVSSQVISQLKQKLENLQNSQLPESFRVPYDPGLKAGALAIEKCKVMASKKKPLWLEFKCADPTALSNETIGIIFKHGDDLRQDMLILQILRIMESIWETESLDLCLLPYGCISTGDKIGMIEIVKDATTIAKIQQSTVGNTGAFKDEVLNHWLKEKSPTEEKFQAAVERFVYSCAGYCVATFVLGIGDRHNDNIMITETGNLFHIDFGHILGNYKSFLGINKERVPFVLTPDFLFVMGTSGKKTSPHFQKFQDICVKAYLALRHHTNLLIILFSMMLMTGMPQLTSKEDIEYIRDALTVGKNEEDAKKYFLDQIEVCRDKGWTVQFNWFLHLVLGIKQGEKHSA
Protocol: as §1, §2, §3, §4, §5, §6, §7, §8, §9, §10, §11, §12, §13, §14, §15

Leukemia Cell Line SR = assay: cells; assay type: cell-based; conditions: Homo sapiens, read-out: inhibition of proliferation
[3] = system: Breast Cancer Cell Line MDA-MB-468; assay: cells; conditions: Homo sapiens, MDA-MB-468, read-out: inhibition of proliferation
[4] = system: Leukemia Cell Line MOLT-4; assay type: cell-based; conditions: Homo sapiens
PI3Kβ = PI3Kβ (Homo sapiens, UniProt P42338); assay: PI3Kβ kinase assay (HTRF); assay type: biochemical
Chain of PI3Kβ (P42338 whole entry): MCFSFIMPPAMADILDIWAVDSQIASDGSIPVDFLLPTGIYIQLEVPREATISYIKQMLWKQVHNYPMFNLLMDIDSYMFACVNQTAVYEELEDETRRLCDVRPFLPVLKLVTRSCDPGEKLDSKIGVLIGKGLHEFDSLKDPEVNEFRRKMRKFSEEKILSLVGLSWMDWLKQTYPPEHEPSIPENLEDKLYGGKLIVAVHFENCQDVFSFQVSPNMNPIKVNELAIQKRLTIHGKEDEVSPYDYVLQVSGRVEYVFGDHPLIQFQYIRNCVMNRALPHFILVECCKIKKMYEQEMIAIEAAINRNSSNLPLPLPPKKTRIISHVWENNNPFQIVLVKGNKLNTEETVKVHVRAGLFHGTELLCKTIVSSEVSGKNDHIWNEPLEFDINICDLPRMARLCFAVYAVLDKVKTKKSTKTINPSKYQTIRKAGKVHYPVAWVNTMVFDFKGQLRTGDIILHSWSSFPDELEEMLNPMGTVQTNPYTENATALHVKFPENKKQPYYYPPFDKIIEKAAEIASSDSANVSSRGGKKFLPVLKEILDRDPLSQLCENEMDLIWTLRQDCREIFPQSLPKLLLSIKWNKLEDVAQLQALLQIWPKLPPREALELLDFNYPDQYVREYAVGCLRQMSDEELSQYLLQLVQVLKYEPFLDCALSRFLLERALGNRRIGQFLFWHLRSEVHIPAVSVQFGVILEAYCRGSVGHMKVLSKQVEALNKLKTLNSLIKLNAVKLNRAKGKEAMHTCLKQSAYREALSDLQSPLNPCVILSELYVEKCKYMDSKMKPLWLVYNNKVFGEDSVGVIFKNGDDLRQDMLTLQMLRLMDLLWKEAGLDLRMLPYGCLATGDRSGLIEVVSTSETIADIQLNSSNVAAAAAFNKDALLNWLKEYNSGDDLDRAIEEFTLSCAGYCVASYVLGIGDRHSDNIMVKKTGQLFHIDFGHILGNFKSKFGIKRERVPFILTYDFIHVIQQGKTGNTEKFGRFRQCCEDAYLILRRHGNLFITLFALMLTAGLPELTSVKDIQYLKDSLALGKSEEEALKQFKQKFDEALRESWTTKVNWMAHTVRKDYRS
Chain of PI3Kβ (P27986 whole entry partner): as the sequence (P27986 whole entry partner) above
Protocol: as §1, §2, §3, §4, §5, §6, §7, §8, §9, §10, §11, §12, §13, §14, §15

Ovarian Cell Line IGROV1 = assay type: cell-based; conditions: Homo sapiens
[5] = system: Ovarian Cell Line OVCAR-3; assay: cells; conditions: Homo sapiens, OVCAR-3, read-out: inhibition of proliferation
[6] = system: Melanoma Cell Line UACC-62; assay: cells; assay type: cell-based; conditions: Homo sapiens
[7] = system: Ovarian Cell Line NCI/ADR-RES; assay: cells; assay type: cell-based; conditions: Homo sapiens, read-out: inhibition of proliferation
[8] = system: Ovarian Cell Line OVCAR-8; assay: cells; assay type: cell-based; conditions: Homo sapiens, OVCAR-8, read-out: inhibition of proliferation
[9] = system: Leukemia Cell Line CCRF-CEM; assay: cells; assay type: cell-based; conditions: Homo sapiens, read-out: inhibition of proliferation
[10] = system: Breast Cancer Cell Line BT-549; assay: cells; assay type: cell-based; conditions: Homo sapiens, BT-549, read-out: inhibition of proliferation
[11] = system: Leukemia Cell Line HL-60(TB); assay type: cell-based; conditions: Homo sapiens
[12] = HS 578T, single dose, 10 uM compound concentration
[13] = IGROV-1, read-out: inhibition of proliferation
[14] = UACC-62, read-out: inhibition of proliferation
[15] = RPMI-8226, read-out: inhibition of proliferation
[16] = MOLT-4, read-out: inhibition of proliferation
[17] = HL-60, read-out: inhibition of proliferation

CC[C@H](Nc1ncnc2[nH]cnc12)c1nc2cccc(CC(=O)c3ccc(C(=O)NO)cc3)c2c(=O)n1-c1ccccc1 [Compound I, (S)-4-(2-(2-(1-((9H-purin-6-yl)amino)propyl)-4-oxo-3-phenyl-3,4-dihydroquinazolin-5-yl)acetyl)-N-hydroxybenzamide]
inhibition at 1 µM (PI3Kδ): > 90%
inhibition at 1 µM (PI3Kα): < 85%
inhibition at 10 µM [1, 12]: 25 to 50%
inhibition at 1 µM (HDAC6): > 90%
inhibition at 10 µM ([2]; RPMI-8226, single dose, 10 uM compound concentration, read-out: inhibition of proliferation): > 50%
inhibition at 1 µM (PI3Kγ): < 85%
inhibition at 10 µM (Leukemia Cell Line SR; SR, single dose, 10 uM compound concentration): 25 to 50%
inhibition at 10 µM [3]: 25 to 50%
inhibition at 10 µM ([4]; MOLT-4, single dose, 10 uM compound concentration, read-out: inhibition of proliferation): 25 to 50%
inhibition at 1 µM (PI3Kβ): < 85%

CC[C@H](Nc1nc(N)nc(C)c1C#N)c1nc2cccc(NCc3ccc(C(=O)NO)cc3)c2c(=O)n1-c1ccccc1 [Compound XL, (S)-4-(((2-(1-((2-amino-5-cyano-6-methylpyrimidin-4-yl)amino)propyl)-4-oxo-3-phenyl-3,4-dihydroquinazolin-5-yl)amino)methyl)-N-hydroxybenzamide]
inhibition at 10 µM (Ovarian Cell Line IGROV1; [13]): > 50%
inhibition at 10 µM [5]: > 50%
inhibition at 10 µM [6, 14]: > 50%
inhibition at 10 µM [7]: 25 to 50%
inhibition at 10 µM [8]: > 50%
inhibition at 10 µM ([1]; Hs-578T): > 50%
inhibition at 10 µM [2, 15]: > 50%
inhibition at 10 µM [9]: > 50%
inhibition at 10 µM [3]: > 50%
inhibition at 10 µM [4, 16]: > 50%
inhibition at 10 µM [10]: > 50%
inhibition at 10 µM [11, 17]: > 50%

CC[C@H](Nc1ncnc2[nH]cnc12)c1nc2cccc(CCCCNC(=O)NO)c2c(=O)n1-c1ccccc1 [Compound XXIV]
IC50 (PI3Kδ; symbols ++ / +, read-out: PI3Kδ Inhibition Activity (IC50 class)): < 100 nM
inhibition at 10 µM (Ovarian Cell Line IGROV1; [13]): > 50%
inhibition at 10 µM [6, 14]: 25 to 50%
inhibition at 1 µM (PI3Kα): < 85%
inhibition at 10 µM ([1]; Hs-578T): 25 to 50%
IC50 (HDAC6; symbols ++ / +, read-out: HDAC6 Inhibition Activity (IC50 class)): > 100 nM
inhibition at 10 µM [9]: 25 to 50%
inhibition at 1 µM (PI3Kγ): 91%
inhibition at 10 µM (Leukemia Cell Line SR): 25 to 50%
inhibition at 10 µM [3]: 25 to 50%
inhibition at 10 µM [10]: 25 to 50%
inhibition at 1 µM (PI3Kβ): < 85%
inhibition at 10 µM [11, 17]: > 50%

CC[C@H](Nc1ncnc2[nH]cnc12)c1nc2cccc(CCCCC(=O)NO)c2c(=O)n1-c1ccccc1 [XII, (S)-5-(2-(1-((9H-purin-6-yl)amino)propyl)-4-oxo-3-phenyl-3,4-dihydroquinazolin-5-yl)-N-hydroxypentanamide]
inhibition at 10 µM ([1]; Hs-578T): 25 to 50%
inhibition at 10 µM [2, 15]: > 50%
inhibition at 10 µM [9]: 25 to 50%
inhibition at 10 µM (Leukemia Cell Line SR): > 50%
inhibition at 10 µM [3]: 25 to 50%
inhibition at 10 µM [4, 16]: 25 to 50%

CC[C@H](Nc1cc(C)nc(N)n1)c1nc2cccc(NCc3ccc(C(=O)NO)cc3)c2c(=O)n1-c1ccccc1 [XLI, (S)-4-(((2-(1-((2-amino-6-methylpyrimidin-4-yl)amino)propyl)-4-oxo-3-phenyl-3,4-dihydroquinazolin-5-yl)amino)methyl)-N-hydroxybenzamide]
inhibition at 10 µM (Ovarian Cell Line IGROV1; [13]): > 50%
inhibition at 10 µM [5]: > 50%
inhibition at 10 µM [6, 14]: > 50%
inhibition at 10 µM [8]: > 50%
inhibition at 10 µM ([1]; Hs-578T): > 50%
inhibition at 10 µM [2, 15]: > 50%
inhibition at 10 µM [9]: > 50%
inhibition at 10 µM [3]: > 50%
inhibition at 10 µM [4, 16]: > 50%
inhibition at 10 µM [10]: > 50%
inhibition at 10 µM [11, 17]: > 50%

CC[C@H](Nc1nc(N)nc(C)c1C#N)c1nc2cccc(N3CCC(CC(=O)NO)CC3)c2c(=O)n1-c1ccccc1 [XLIX, (S)-2-(1-(2-(1-((2-amino-5-cyano-6-methylpyrimidin-4-yl)amino)propyl)-4-oxo-3-phenyl-3,4-dihydroquinazolin-5-yl)piperidin-4-yl)-N-hydroxyacetamide]
inhibition at 1 µM (PI3Kδ): > 90%
inhibition at 10 µM (Ovarian Cell Line IGROV1; IGROV-1, IGROV1, single dose, 10 uM compound concentration, read-out: inhibition of proliferation): 25 to 50%
inhibition at 10 µM ([6]; UACC-62, single dose, 10 uM compound concentration, read-out: inhibition of proliferation): 25 to 50%
inhibition at 10 µM [1, 12]: 25 to 50%
inhibition at 1 µM (HDAC6): < 90%
inhibition at 10 µM ([9]; single dose, 10 uM compound concentration): 25 to 50%
inhibition at 10 µM [3]: 25 to 50%
inhibition at 10 µM ([11]; HL-60(TB), single dose, 10 uM compound concentration, read-out: inhibition of proliferation): 25 to 50%
